Assay results reported in patent US5571687A, “Modulators of multidrug resistance transporters” (Duke University, priority 1994, dated 1996).
Like-named read-outs stand apart in the source and are kept apart here. One block for each molecule: values may come before it.

Key:
[1] = target: P-glycoprotein (human MDR1 expressed in Sf9 cells) (Homo sapiens, UniProt P08183, G185V); assay: P-gp-associated ATPase activity (vanadate-sensitive release of inorganic phosphate from ATP), stimulation, membranes of Sf9 cells expressing human MDR1
Source text: (§1) physiologic and non-physiologic compounds, including prenylcysteines and analogs thereof, can be tested in vitro for their ability to serve as P-gp substrates (and thus modulators of MDR transporter activity), both in terms of stimulating the intrinsic ATPase activity of the transporter and competing for drug binding. Insect cells (eg Sf9 cells) infected with baculovirus containing MDR1 cDNA (available from the American Type Culture Collection, Rockville, Md.) can be used as a source of membranes suitable for use in such in vitro screens. Membranes from drug-induced resistant cells can also be used (eg, MCF7-MDR breast cancer cells). Details of an appropriate protocol for testing compounds for their ability to stimulate P-gp-associated ATPase are given in the Examples. The method described involves incubating MDR transporter-containing membranes with the test compound and measuring the level of vanadate sensitive release of inorganic phosphate from ATP (see Sarkadi et al, J. Biol. Chem. 267:4854 (1992)).
Sf9 cells were grown in Grace's insect culture media supplemented with 10% fetal bovine serum (HyClone), 0.1% Pluronic F-68, 100 unit/ml penicillin and 100 μg/ml streptomycin. Sf9 cells were infected with baculovirus according to established procedures (O'Reilly et al, Baculovirus Expression Vectors--A Laboratory Manual, New York: W.H. Freeman & Co. (1992)). Recombinant baculovirus containing the human MDR1V185 cDNA (Germann et al, Biochemistry 29:2295 (1990)) was provided by Dr. M. Gottesman (MDR1 cDNAs are available from the American Type Culture Collection, Rockville, Md.). Mock-infection was carried out using recombinant baculovirus containing the cDNA encoding a protein prenyltransferase. […] These cells were grown in Iscove's Modified Dulbecco's Media (MDM) supplemented with 10% fetal bovine serum. The MCF7-MDR cells were exposed to 10 μM doxorubicin every 8-10 passages to maintain the drug-resistant phenotype.
Sf9 membranes were prepared from cells harvested 3 days after infection with specified baculovirus as described (Sarkadi et al, J. Biol. Chem. 267:4854 (1992)). MCF7 membranes from both wild-type and drug-resistant cell lines were prepared by nitrogen cavitation procedures (Cornwell et al, J. Biol. Chem. 261:7921 (1986)), flash-frozen in liquid nitrogen, and stored at -80° C. until use.
P-gp-associated ATPase activity was measured by determining vanadate-sensitive release of inorganic phosphate from ATP as described (Sarkadi et al, J. Biol. Chem. 267:4854 (1992)). Sf9 membranes containing 5-10 μg protein were incubated in 100 μl of 50 mM Mes-Tris, pH 6.8, 50 mM KCl, 2 mM DTT, 2 mM EGTA, 1 mM ouabain, 5 mM sodium azide, 5 mM Mg/ATP. P-gp-associated ATPase activity in MCF7-MDR cells was measured using the same condition except that 50 mM Mes-Tris, pH 6.8 was replaced by 50 mM Tris-HCl, pH 7.5. […] Reactions were conducted at 37° C. for 20 min.

P-gp = P-gp (Homo sapiens, UniProt P08183, G185V); assay: Inhibition of basal and drug-stimulated P-gp ATPase activity; type: biochemical
Source text: FIG. 3. Ability of acetyl farnesyl methylester (AFCME) to block drug stimulated ATPase of MDR.
FIG. 4. Interaction of prenylcysteine methylamides and prenylcysteine-containing dipeptides with P-gp. The compounds were purified by reversephase HPLC chromatography and analyzed for their ability to stimulate the ATPase activity of P-gp in Sf9 membranes and, in the case of AFCMA, to inhibit FCME-stimulated ATPase activity as described for AFCME in Example 4. Left panel--Stimulation of P-gp ATPase activity in Sf9 membranes. Increasing concentration of FCMA (.box-solid.), farnesylated γGlu-Cys (unmethylated F-dipeptide, Δ), and the methylated form of farnesylated γGlu-Cys (methylated F-dipeptide, .tangle-solidup.) were analyzed. Right panel AFCMA inhibition of P-gp ATPase activity in Sf9 membranes. Increasing concentrations of AFCMA were added to membranes from Sf9 cells expressing P-gp either with no added drug (.largecircle.) or along with 20 μM […] as an ATPase stimulator (.circle-solid.).
The ATPase assay can also be used to identify test compounds that inhibit P-gp activity, ie P-gp antagonists, which are also potential agents for reversing P-gp-mediated drug resistance. In this type of assay, the ability of a selected test compound to reduce P-gp-ATPase which has been stimulated by a drug known to elicit this activity (eg verapimil or farnesylcysteine methyl ester (FCME) is examined. Increasing concentrations of the selected test compound and a fixed amount of the stimulatory drug are mixed, added to the P-gp preparation, and ATPase activity determined. A dose-dependent inhibition of ATPase activity by the selected compound indicates an antagonist.
Reactions were conducted at 37° C. for 20 min.

[2] = target: native P-gp expressed in the drug-resistant human breast cancer cell line MCF7-MDR (Homo sapiens, UniProt P08183); conditions: mcf7-mdr membranes, 20 min
Source text: as §1, with “(1992)). […]” for “(1992)).”
P-gp-associated ATPase activity was measured by determining vanadate-sensitive release of inorganic phosphate from ATP as described (Sarkadi et al, J. Biol. Chem. 267:4854 (1992)). […] P-gp-associated ATPase activity in MCF7-MDR cells was measured using the same condition except that 50 mM Mes-Tris, pH 6.8 was replaced by 50 mM Tris-HCl, pH 7.5. […]

[3] = read-out: maximum stimulation of P-gp ATPase

Compound: CC(=O)N[C@@H](CSCC=C(C)CCC=C(C)CCC=C(C)C)C(=O)O [AFC, N-acetyl-S-farnesylcysteine]
- ATPase stimulation (in words) [1]: did not stimulate the transporter's ATPase activity

Compound: CNC(=O)C(CSCC=C(C)CCC=C(C)CCC=C(C)C)NC(C)=O (stereo not drawn) [AFCMA]
- inhibition of drug-stimulated P-gp ATPase activity (in words) (P-gp; Sf9 membranes, FIG. 4 right panel): potent in stimulation (FCMA) and inhibition of drug-stimulated (AFCMA) P-gp ATPase activities

Compound: CC(C)=CCCC(C)=CCCC(C)=CCSC[C@H](NC(=O)CC[C@H](N)C(=O)O)C(=O)O [F-γGlu- Cys]
- stimulation of P-gp ATPase activity (in words) [1]: stimulate P-gp ATPase activity in a methylation-dependent fashion

Compound: CC(C)=CCCC(C)=CCCC(C)=CCSC[C@H](N)C(=O)O [FC, S-farnesylcysteine]
- stimulation of P-gp ATPase activity (in words) [1]: ineffective in stimulating the ATPase of P-gp

Compound: CC(C)=CCC/C(C)=C/CC/C(C)=C/CC/C(C)=C/CSC[C@H](N)C(=O)O [GGC, S-geranylgeranylcysteine]
- stimulation of P-gp ATPase activity (in words) [1]: ineffective in stimulating the ATPase of P-gp

Further lines, with some results ahead:

- concentration at which the transporter's basal ATPase activity is inhibited (P-gp; basal ATPase activity): > 20 µM
- stimulation of ATPase activity at low concentrations (in words) (P-gp; low (<20 μM) concentrations, preliminary analysis): weak stimulation of the ATPase activity
Compound: COC(=O)[C@H](CSCC=C(C)CCC=C(C)CCC=C(C)C)NC(C)=O [AFCME, N-acetyl-S-farnesylcysteine methyl ester]
- blocking of basal and drug (FCME, verapamil)-stimulated ATPase activity (in words) (P-gp; dose-dependent, FIG. 3): can block both the basal and drug-stimulated ATPase activities of P-gp in a dose-dependent fashion
- inhibition of basal ATPase activity (in words) (P-gp; higher concentrations (above 20 μM), preliminary analysis): marked inhibition of even the basal ATPase activity
- ATPase stimulation (in words) [1]: essentially abolished its stimulatory effect

- stimulation of P-gp ATPase activity (in words) [1]: potent in stimulation
Compound: CNC(=O)C(N)CSCC=C(C)CCC=C(C)CCC=C(C)C (stereo not drawn) [FCMA]

- concentration of maximum stimulation of P-gp ATPase [1]: 10 to 20 µM
- Emax ([1]; read-out: Maximal stimulation of ATPase activity): ~450%
- Emax [1, 3]: 400 to 500%
- increase of P-gp-catalyzed ATP hydrolysis [2]: ~ 2.5 fold
Compound: COC(=O)[C@@H](N)CSC/C=C(\C)CC/C=C(\C)CCC=C(C)C [FCME, S-farnesylcysteine methyl ester]
- stimulation of P-gp ATPase activity (in words) [1]: stimulated this activity in a fashion very similar to that of verapamil

- ATPase stimulation (in words) [1]: ineffective
Compound: CC(C)=CCCC(C)=CCCC(C)=CCO [FOH, Farnesol, reference compound]

- concentration of maximum stimulation of P-gp ATPase [1]: 10 to 20 µM
- Emax [1, 3]: 400 to 500%
- increase of P-gp-catalyzed ATP hydrolysis [2]: ~ 2.5 fold
Compound: COC(=O)[C@@H](N)CSC/C=C(\C)CC/C=C(\C)CC/C=C(\C)CCC=C(C)C [GGCME, S-geranylgeranylcysteine methyl ester]
- stimulation of P-gp ATPase activity (in words) [1]: stimulated this activity in a fashion very similar to that of verapamil
